In patent US20240270737A1, “SMALL MOLECULAR INHIBITORS OF STING SIGNALING COMPOSITIONS AND METHODS OF USE” (STINGINN INC., priority 2021, published 2024):

Experiments:
STING trafficking = assay: Confocal analysis of STING trafficking in hTERT cells; format: cell-based, human; conditions: 6 hours after ISD transfection
Method: FIG. 1D are photographs showing confocal analysis for STING trafficking was performed at 6 hours after ISD transfection with/without W1, treatment same as FIG. 1A, according to an embodiment of the invention;
Immunofluorescence Microscopy: Cells were cultured and treated in their appropriate media on Lab-Tek II chamber slides. Cell were fixed with 4% paraformaldehyde for 15 minutes in at 37° C. and permeabilized with 0.05% Triton X-100 for 5 minutes at room temperature. Immunostaining was performed with rabbit-anti-STING polyclonal, rabbit-anti-IRF3 (Santa Cruz Biotechnology) or rabbit-anti-p65 (Cell Signaling) followed by fluorescence conjugated secondary antibodies (FITC-goat-anti-rabbit) (Invitrogen).

[1] = test system: IFNβ expression and production; assay: IFNβ expression and production in normal hTERT cells (qPCR, ELISA); format: cell-based, human; conditions: ISD transfection
Method: The ability of compound W1 administered onto normal hTERT cells to prevent cytosolic DNA from activating STING was assessed (FIGS. 1B-H). […] In addition, the level of STING phosphorylation (STING is phosphorylated following activation) and the subsequent phosphorylation of TBK1, the kinase of IRF3 was assessed. Phosphorylation of TBK1 and IRF3 are required for activation of the type I IFN promoter.
Interferon R Elisa analysis: Interferon R Elisa was performed using either the IFNβ human ELISA Kit from Invitrogen or the Human IFNβ ELISA Kit from PBL Interferon Source following the manufacturer's protocol.
Quantitative Real time PCR (qPCR) Total RNA were reverse-transcribed using M-MLV Reverse Transcriptase (Promega). Real-time PCR was performed using Taqman Gene Expression Assay (Applied Biosystems) for innate immune genes and inflammatory cytokines.

[2] = test system: T1, human STING CBD-CTT (152-379); assay: Thermal shift assay (TSA) binding to purified STING
T1 construct: made in house; host or cells: E. coli BL21 DE3 RIPL Codon Plus
Description: Purified STING protein was used as bait to identify binding compounds, using a thermal shift assay (TSA). A library containing 250,000 compounds (Enamine, Monmouth Jct., NJ) was surveyed. Compounds that bound to STING were then examined for their ability to inhibit STING signaling, see Examples 1-4 vide infra. In the presence of cytosolic DNA species, STING becomes activated to drive the transcription of cytokines such as type I IFN. Compounds binding to STING via TSA were subsequently examined for their ability prevent cytosolic DNA species from activating the type I interferon (IFN) promoter, using a live cell assay. This assay comprised immortalized human fibroblasts (hTERT) that were stably transfected with the type I IFN promoter driving luciferase as well as the CMV promoter driving SEAP (hTERT-pIFNβ-Glu). The ability of the small molecules to prevent activation of the type I IFN promoter and the transcription of luciferase, but not SEAP in response to cytosolic DNA species can be assessed. […]
Thermal High Throughput Screen: The denaturation profile of purified STING (STING152-379H) was calibrated using a fluorometer equipped with temperature control (a qPCR apparatus with 320 well capacity). […] Curves were measured for STING only and STING+small molecule, and ΔTm was calculated. […]

pIRF3, pSTING = assay: Western blot of pIRF3, pSTING, pTBK1 after ISD transfection in hTERT cells; format: cell-based, human
Method: FIG. 1C are photographs showing Western blot analysis of STING, phospho-TBK1 (pTBK1) and phospho-IRF3 (pIRF3) performed at 6 hours after ISD transfection with/without W1 treatment same as FIG. 1A, Mock is shown (210), ISD treatment only (220) was used as a control, according to an embodiment of the invention;
Immunoblot analysis: Equal amounts of proteins were resolved on sodium dodecyl sulfate (SDS)-Polyacrylamide gels and then transferred to polyvinylidene fluoride (PVDF) membranes (Millipore). After blocking with 5% Blocking Reagent, membranes were incubated with various primary antibodies (and appropriate secondary antibodies). The image was resolved using an enhanced chemiluminescence system ECL (Thermo Scientific) and detected by autoradiography (Kodak). Antibodies: rabbit polyclonal antibody against STING was developed in our laboratory as described previously in Ishikawa et al, 2008; other antibodies were obtained from following sources: β-actin (Sigma Aldrich), p-IRF3 (Cell Signaling), IRF3 (Santa Cruz Biotechnology), p-p65 (Cell Signaling), p65 (Cell Signaling), p-TBK1 (Cell Signaling), TBK1 (Abcam), cGAS (Cell Signaling).

Cc1cc([N+](=O)[O-])ccc1S(=O)(=O)Nc1nc2cc(C(F)(F)F)ccc2[nH]1 [Compound W1, 2-methyl-4-nitro-N-[5-(trifluoromethyl)-1H-1,3-benzodiazol-2-yl]benzene-1-sulfonamide]
STING trafficking (STING trafficking): effectively preventing STING trafficking | IFNβ expression and production [1]: dramatically decreased | binding to STING [2]: binds to STING | inhibition at 10 µM (pIRF3, pSTING; Homo sapiens): < 10% | STING phosphorylation and TBK1 and IRF3 phosphorylation (pIRF3, pSTING; hTERT cells, 6 hours after ISD transfection): robustly prevented
